Activity calls are given as the source filed them. No cut-off for these calls is given here.
Tests used:
[1] = test system: A549; test: Inhibition of Hsp90-Cdc37 interaction in human A549 cells assessed as decrease in Cdc37 protein level at 5 uM incubated for 6 hrs by immunoprecipitation assay; assay type: cell-based
[2] = target: RAC-alpha serine/threonine-protein kinase (Homo sapiens) (UniProt P31749); test: Inhibition of Akt phosphorylation in human A549 cells incubated for 8 hrs by Western blot analysis; assay type: cell-based
[3] = test system: A549; test: Induction of apoptosis in human A549 cells assessed as increase in BAX expression incubated for 8 hrs by western blot analysis; assay type: functional, cell-based
[4] = test system: A549; test: Induction of apoptosis in human A549 cells assessed as increase in caspase-3 expression incubated for 8 hrs by western blot analysis; assay type: functional, cell-based
[5] = test system: A549; test: Cell cycle arrest in human A549 cells assessed as accumulation at G1 phase at 0.06 uM incubated for 12 hrs by propidium iodide staining based flow cytometry analysis (Rvb=49.49%); assay type: functional
[6] = test system: A549; test: Cell cycle arrest in human A549 cells assessed as accumulation at S phase at 0.06 uM incubated for 12 hrs by propidium iodide staining based flow cytometry analysis (Rvb=38.46%); assay type: functional
[7] = test system: A549; test: Cell cycle arrest in human A549 cells assessed as accumulation at G1 phase at 0.18 uM incubated for 12 hrs by propidium iodide staining based flow cytometry analysis (Rvb=49.49%); assay type: functional
[8] = test system: A549; test: Cell cycle arrest in human A549 cells assessed as accumulation at S phase at 0.18 uM incubated for 12 hrs by propidium iodide staining based flow cytometry analysis (Rvb=38.46%); assay type: functional
[9] = test system: A549; test: Cell cycle arrest in human A549 cells assessed as accumulation at G2 phase at 0.18 uM incubated for 12 hrs by propidium iodide staining based flow cytometry analysis (Rvb=11.7%); assay type: functional
[10] = test system: A549; test: Cell cycle arrest in human A549 cells assessed as accumulation at S phase at 0.27 uM incubated for 12 hrs by propidium iodide staining based flow cytometry analysis (Rvb=38.46%); assay type: functional
[11] = test system: A549; test: Cell cycle arrest in human A549 cells assessed as accumulation at G2 phase at 0.27 uM incubated for 12 hrs by propidium iodide staining based flow cytometry analysis (Rvb=11.7%); assay type: functional
[12] = test system: A549; test: Cell cycle arrest in human A549 cells assessed as accumulation at G1 phase at 0.06 uM incubated for 24 hrs by propidium iodide staining based flow cytometry analysis (Rvb=55.3%); assay type: functional
[13] = test system: A549; test: Induction of apoptosis in human A549 cells assessed as increase in cleaved PARP expression at 0.5 to 2 uM incubated for 8 hrs by western blot analysis; assay type: functional, cell-based
[14] = test system: A549; test: Induction of apoptosis in human A549 cells assessed as increase in cleaved caspase8 expression at 0.5 to 2 uM incubated for 8 hrs by western blot analysis; assay type: functional, cell-based
[15] = test system: A549; test: Induction of apoptosis in human A549 cells assessed as viable cells at 0.4 uM incubated for 24 hrs by AnnexinV-FITC/propidium iodide staining-based flow cytometric analysis (reference value: 88.1%); assay type: functional; conditions: A549, 24 h, read-out: Activity
[16] = test system: A549; test: Induction of apoptosis in human A549 cells assessed as viable cells at 0.6 uM incubated for 24 hrs by AnnexinV-FITC/propidium iodide staining-based flow cytometric analysis (reference value: 88.1%); assay type: functional; conditions: A549, 24 h, read-out: Activity
[17] = test system: A549; test: Induction of apoptosis in human A549 cells assessed as late apoptotic cells at 0.8 uM incubated for 24 hrs by AnnexinV-FITC/propidium iodide staining-based flow cytometric analysis (reference value: 4.2%); assay type: functional
[18] = test system: A549; test: Induction of apoptosis in human A549 cells assessed as early apoptotic cells at 1.2 uM incubated for 24 hrs by AnnexinV-FITC/propidium iodide staining-based flow cytometric analysis (reference value: 4.1%); assay type: functional
[19] = test system: A549; test: Induction of apoptosis in human A549 cells assessed as necrotic cells at 1.2 uM incubated for 24 hrs by AnnexinV-FITC/propidium iodide staining-based flow cytometric analysis (reference value: 3.6%); assay type: functional
[20] = test system: A549; test: Induction of apoptosis in human A549 cells assessed as cell shrinkage at 0.06 to 0.18 uM incubated for 48 hrs by Hoechst 33342 staining-based fluorescence microscopy; assay type: functional

Sequence of RAC-alpha serine/threonine-protein kinase (Homo sapiens) (P31749 whole entry): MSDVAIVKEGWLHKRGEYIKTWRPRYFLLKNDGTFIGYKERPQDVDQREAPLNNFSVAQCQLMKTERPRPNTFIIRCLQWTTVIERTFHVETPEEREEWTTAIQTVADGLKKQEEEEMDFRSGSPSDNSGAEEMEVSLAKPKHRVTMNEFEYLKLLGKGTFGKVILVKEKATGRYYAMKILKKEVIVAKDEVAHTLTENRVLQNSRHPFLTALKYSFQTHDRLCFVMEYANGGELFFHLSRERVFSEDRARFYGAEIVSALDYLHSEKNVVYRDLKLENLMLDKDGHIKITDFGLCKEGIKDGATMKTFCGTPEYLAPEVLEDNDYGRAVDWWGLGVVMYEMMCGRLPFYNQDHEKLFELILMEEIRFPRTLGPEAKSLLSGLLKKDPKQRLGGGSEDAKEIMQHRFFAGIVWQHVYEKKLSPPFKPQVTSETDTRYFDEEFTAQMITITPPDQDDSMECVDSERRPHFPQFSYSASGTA

inhibition [2]: Dose-dependent effect
SMILES: COC(=O)/C=C\c1ccc(OC)c(OCCOC(=O)[C@]2(C)CC[C@]3(C)CC[C@]4(C)C5=CC=C6C(=CC(=O)C(O)=C6C)[C@]5(C)CC[C@@]4(C)[C@@H]3C2)c1
inhibition [1]: Active
Activity [3]: Active
Activity [4]: Active
Activity [5]: 52.22%
Activity [6]: 36.32%
Activity [7]: 56.86%
Activity [8]: 34.71%
Activity [9]: 10.44%
Activity [10]: 35.25%
Activity [11]: 5.52%
Activity [12]: 53.02%
Activity [13]: Dose-dependent effect
Activity [14]: Dose-dependent effect
viability at 0.4 µM [15]: 69.9%
viability at 0.6 µM [16]: 50.6%
Activity [17]: 43.3%
Activity [18]: 11.3%
Activity [19]: 11.9%
Activity [20]: Active
